From the supplement of paper PMC10307832

What was measured:
Assay in all cases: relative viability (nuclei count vs DMSO), 5 days (fraction); higher = more cells survive
Bexarotene + Trametinib = compound: C=C(c1ccc(C(=O)O)cc1)c1cc2c(cc1C)C(C)(C)CCC2(C)C [Bexarotene] + CC(=O)Nc1cccc(-n2c(=O)n(C3CC3)c(=O)c3c(Nc4ccc(I)cc4F)n(C)c(=O)c(C)c32)c1 [Trametinib] (partner 0.02 µM)
Outline: (§1)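 Values are medians from duplicate plates. Each reflects relative viability, defined as the nuclei count of treated wells over that of vehicle wells. Lung cancer cell lines in 1536-well plates were pin-tool dosed one day after seeding with one drug alone or with a fixed anchor-drug dose plus five library-drug doses (not always all listed) in √10 steps, then fixed, stained and imaged at 4× after 5 days.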

Bexarotene + Bortezomib = compound: C=C(c1ccc(C(=O)O)cc1)c1cc2c(cc1C)C(C)(C)CCC2(C)C [Bexarotene] + CC(C)C[C@H](NC(=O)[C@H](Cc1ccccc1)NC(=O)c1cnccn1)B(O)O [Bortezomib] (partner 0.002 µM)
Outline: as §1

Bexarotene + Pictilisib = compound: C=C(c1ccc(C(=O)O)cc1)c1cc2c(cc1C)C(C)(C)CCC2(C)C [Bexarotene] + CS(=O)(=O)N1CCN(Cc2cc3nc(-c4cccc5[nH]ncc45)nc(N4CCOCC4)c3s2)CC1 [Pictilisib] (partner 1 µM)
Outline: as §1

Bexarotene + Olaparib = compound: C=C(c1ccc(C(=O)O)cc1)c1cc2c(cc1C)C(C)(C)CCC2(C)C [Bexarotene] + O=C(c1cc(Cc2n[nH]c(=O)c3ccccc23)ccc1F)N1CCN(C(=O)C2CC2)CC1 [Olaparib] (partner 8 µM)
Outline: as §1

Cell Line | relative viability (Bexarotene + Trametinib; first compound 0.08 µM) | relative viability (Bexarotene + Trametinib; first compound 0.253 µM) | relative viability (Bexarotene + Trametinib; first compound 0.8 µM) | relative viability (Bexarotene + Trametinib; first compound 2.53 µM) | relative viability (Bexarotene + Trametinib; first compound 8 µM) | relative viability (Bexarotene + Bortezomib; first compound 0.08 µM) | relative viability (Bexarotene + Bortezomib; first compound 0.253 µM) | relative viability (Bexarotene + Bortezomib; first compound 0.8 µM) | relative viability (Bexarotene + Bortezomib; first compound 2.53 µM) | relative viability (Bexarotene + Bortezomib; first compound 8 µM) | relative viability (Bexarotene + Pictilisib; first compound 0.08 µM) | relative viability (Bexarotene + Pictilisib; first compound 0.253 µM) | relative viability (Bexarotene + Pictilisib; first compound 0.8 µM) | relative viability (Bexarotene + Pictilisib; first compound 2.53 µM) | relative viability (Bexarotene + Pictilisib; first compound 8 µM) | relative viability (Bexarotene + Olaparib; first compound 0.08 µM) | relative viability (Bexarotene + Olaparib; first compound 0.253 µM) | relative viability (Bexarotene + Olaparib; first compound 0.8 µM) | relative viability (Bexarotene + Olaparib; first compound 2.53 µM) | relative viability (Bexarotene + Olaparib; first compound 8 µM)
HCC-78 | 0.833 | 0.952 | 0.545 | 0.708 | 0.861 | 0.442 | 0.453 | 0.491 | 0.524 | 0.5 | 0.228 | 0.196 | 0.215 | 0.182 | 0.194 | 0.756 | 0.984 | 0.769 | 0.883 | 0.835
HCC-366 | 0.357 | 0.375 | 0.361 | 0.295 | 0.263 | 1.07 | 0.979 | 1.02 | 1.08 | 1.06 | 0.23 | 0.178 | 0.165 | 0.141 | 0.29 | 0.346 | 0.494 | 0.381 | 0.388 | 0.369
HCC-827 | 0.525 | 0.576 | 0.493 | 0.496 | 0.51 | 0.994 | 1.11 | 0.992 | 0.989 | 1 | 1.07 | 1.08 | 0.888 | 1.02 | 0.971 | 0.714 | 0.637 | 0.763 | 0.666 | 0.625
HOP-62 | 0.412 | 0.502 | 0.385 | 0.412 | 0.422 | 0.611 | 1.05 | 0.916 | 0.645 | 0.81 | 1.04 | 0.811 | 0.684 | 0.79 | 0.626 | 0.452 | 0.711 | 0.56 | 0.43 | 0.371
IA-LM |  |  |  |  |  | 0.683 | 0.697 | 0.596 | 0.662 | 0.518 | 0.335 | 0.314 | 0.476 | 0.313 | 0.319 | 0.752 | 0.707 | 0.675 | 0.576 | 0.63
LC-2-ad | 1.06 | 0.941 | 0.96 | 0.968 | 0.948 | 0.936 | 1.16 | 1.09 | 0.936 | 0.985 | 0.809 | 0.473 | 0.433 | 0.503 | 0.381 | 0.711 | 0.693 | 0.663 | 0.541 | 0.661
LCLC-97TM1 | 0.187 | 0.216 | 0.157 | 0.165 | 0.191 | 0.58 | 0.625 | 0.468 | 0.126 | 0.575 | 0.265 | 0.188 | 0.209 | 0.214 | 0.213 | 0.383 | 0.421 | 0.411 | 0.31 | 0.269
LK-2 | 0.838 | 0.895 | 0.779 | 0.719 | 0.915 |  |  |  |  |  | 0.933 | 0.711 | 0.824 | 0.659 | 0.785 | 0.97 | 0.632 | 0.981 | 0.652 | 0.841
NCI-H358 | 0.134 | 0.12 | 0.111 | 0.119 | 0.123 |  |  |  |  |  | 0.377 | 0.364 | 0.376 | 0.435 | 0.351 | 0.855 | 0.596 | 0.573 | 0.625 | 0.551
NCI-H522 | 0.736 | 0.805 | 0.74 | 0.797 | 0.736 |  |  |  |  |  |  |  |  |  |  | 0.666 | 0.66 | 0.635 | 0.564 | 0.675
NCI-H1299 |  |  |  |  |  | 1.07 | 1.1 | 1.04 | 1.02 | 1.06 | 0.954 | 0.893 | 0.661 | 0.733 | 0.596 | 0.951 | 0.967 | 0.917 | 0.882 | 0.895
NCI-H1395 | 1.18 | 1.03 | 1.15 | 0.908 | 1.1 |  |  |  |  |  | 0.678 | 0.603 | 0.571 | 0.807 | 0.762 | 0.441 | 0.543 | 0.476 | 0.459 | 0.504
NCI-H1563 |  |  |  |  |  | 0.9 | 0.814 | 0.741 | 0.83 | 0.98 | 0.736 | 0.647 | 0.685 | 0.696 | 0.661 |  |  |  |  | 
NCI-H1648 | 0.448 | 0.483 | 0.559 | 0.469 | 0.529 |  |  |  |  |  |  |  |  |  |  | 0.927 | 1.34 | 0.712 | 0.766 | 0.685
NCI-H1703 |  |  |  |  |  | 0.254 | 0.253 | 0.258 | 0.227 | 0.27 | 0.247 | 0.239 | 0.209 | 0.247 | 0.262 | 0.532 | 0.494 | 0.483 | 0.386 | 0.377
NCI-H1793 | 0.395 | 0.4 | 0.415 | 0.397 | 0.408 |  |  |  |  |  | 0.52 | 0.547 | 0.508 | 0.316 | 0.431 | 1.06 | 0.966 | 0.787 | 0.903 | 0.695
NCI-H1944 | 0.526 | 0.517 | 0.465 | 0.47 | 0.425 |  |  |  |  |  | 0.388 | 0.391 | 0.336 | 0.374 | 0.37 | 0.625 | 0.573 | 0.617 | 0.602 | 0.494
NCI-H2170 | 0.901 | 0.916 | 0.886 | 0.785 | 0.768 |  |  |  |  |  | 0.352 | 0.307 | 0.302 | 0.271 | 0.268 | 0.576 | 0.645 | 0.574 | 0.609 | 0.562
NCI-H2342 | 0.927 | 0.767 | 0.794 | 0.825 | 0.745 |  |  |  |  |  |  |  |  |  |  | 0.425 | 0.52 | 0.481 | 0.407 | 0.583
SK-MES-1 | 0.701 | 0.747 | 0.656 | 0.672 | 0.65 |  |  |  |  |  | 0.397 | 0.408 | 0.466 | 0.329 | 0.399 | 0.798 | 0.832 | 0.696 | 0.628 | 0.564
SW 900 | 0.635 | 0.846 | 0.85 | 0.81 | 0.647 |  |  |  |  |  |  |  |  |  |  | 0.936 | 0.733 | 1.11 | 0.866 | 0.863
